Experimental data: ChEMBL document CHEMBL2434822, “Discovery of pteridin-7(8H)-one-based irreversible inhibitors targeting the epidermal growth factor receptor (EGFR) kinase T790M/L858R mutant” (J Med Chem, 2013)
The source made the active and inactive calls. The calls are words filed in the database; no cut-off is given here.

Assays:
NCI-H1975 [1] = test: cells; format: functional, cell-based; details: Homo sapiens, NCI-H1975, 72 h
[2] = Antiproliferative activity against gefitinib-sensitive human HCC827 cells harboring EGFR E746 to A750 deletion after 72 hrs by MTS assay; format: functional, cell-based; details: HCC827, 72 h
[3] = target: Epidermal growth factor receptor (Homo sapiens, UniProt P00533, T790M/L858R); test: (§1) Inhibition of EGFR T790M/L858R double mutant (unknown origin) using Tyr 4 peptide as substrate after 1.5 hrs by FRET-based Z'-LYTE assay; format: protein assay
[4] = target: Epidermal growth factor receptor (Homo sapiens, UniProt P00533, L858R); test: Inhibition of EGFR L858R mutant (unknown origin) using Tyr 4 peptide as substrate after 1.5 hrs by FRET-based Z'-LYTE assay; format: protein assay
[5] = target: T1, Epidermal growth factor receptor (Homo sapiens, UniProt P00533); test: Inhibition of wild type EGFR (unknown origin) using Tyr 4 peptide as substrate after 1.5 hrs by FRET-based Z'-LYTE assay
[6] = target: Epidermal growth factor receptor (Homo sapiens, UniProt P00533, L858R/T790M); test: as §1; format: protein assay
NCI-H1975 [7] = test: Antitumor activity against human NCI-H1975 cells xenografted in nude mouse assessed as induction of tumor stasis at 20 mg/kg, ip qd for 14 days; format: functional, organism-based; parameters: dose 20 mg/kg
NCI-H1975 [8] = test: Antitumor activity against human NCI-H1975 cells xenografted in nude mouse assessed as tumor growth inhibition at 20 mg/kg, ip qd for 14 days; format: functional, organism-based; parameters: dose 20 mg/kg
Mus musculus [9] = test: Toxicity in nude mouse xenografted with human NCI-H1975 cells expressing T790M/L858R mutation assessed as mortality at 20 to 40 mg/kg, ip qd for 14 days; format: organism-based; parameters: dose 20-40 mg/kg, route intraperitoneal; details: in vivo, 336 h
Mus musculus [10] = test: Toxicity in nude mouse xenografted with human NCI-H1975 cells expressing T790M/L858R mutation assessed as body weight loss at 20 to 40 mg/kg, ip qd for 14 days relative to control; format: organism-based; parameters: dose 20-40 mg/kg, route intraperitoneal; details: in vivo, 336 h
[11] = Toxicity in ip dosed nude mouse xenografted with human NCI-H1975 cells expressing T790M/L858R mutation administered qd for 14 days; format: organism-based; details: in vivo
[12] = tested on: Epidermal growth factor receptor (Homo sapiens), P00533 [L858R,T790M]; details: 1 uM
[13] = tested on: Epidermal growth factor receptor (Homo sapiens), P00533 [L858R]; details: 1 uM
[14] = target: T2, Tyrosine-protein kinase JAK3 (Homo sapiens) (UniProt P52333); details: 1 uM
T2 sequence (whole entry): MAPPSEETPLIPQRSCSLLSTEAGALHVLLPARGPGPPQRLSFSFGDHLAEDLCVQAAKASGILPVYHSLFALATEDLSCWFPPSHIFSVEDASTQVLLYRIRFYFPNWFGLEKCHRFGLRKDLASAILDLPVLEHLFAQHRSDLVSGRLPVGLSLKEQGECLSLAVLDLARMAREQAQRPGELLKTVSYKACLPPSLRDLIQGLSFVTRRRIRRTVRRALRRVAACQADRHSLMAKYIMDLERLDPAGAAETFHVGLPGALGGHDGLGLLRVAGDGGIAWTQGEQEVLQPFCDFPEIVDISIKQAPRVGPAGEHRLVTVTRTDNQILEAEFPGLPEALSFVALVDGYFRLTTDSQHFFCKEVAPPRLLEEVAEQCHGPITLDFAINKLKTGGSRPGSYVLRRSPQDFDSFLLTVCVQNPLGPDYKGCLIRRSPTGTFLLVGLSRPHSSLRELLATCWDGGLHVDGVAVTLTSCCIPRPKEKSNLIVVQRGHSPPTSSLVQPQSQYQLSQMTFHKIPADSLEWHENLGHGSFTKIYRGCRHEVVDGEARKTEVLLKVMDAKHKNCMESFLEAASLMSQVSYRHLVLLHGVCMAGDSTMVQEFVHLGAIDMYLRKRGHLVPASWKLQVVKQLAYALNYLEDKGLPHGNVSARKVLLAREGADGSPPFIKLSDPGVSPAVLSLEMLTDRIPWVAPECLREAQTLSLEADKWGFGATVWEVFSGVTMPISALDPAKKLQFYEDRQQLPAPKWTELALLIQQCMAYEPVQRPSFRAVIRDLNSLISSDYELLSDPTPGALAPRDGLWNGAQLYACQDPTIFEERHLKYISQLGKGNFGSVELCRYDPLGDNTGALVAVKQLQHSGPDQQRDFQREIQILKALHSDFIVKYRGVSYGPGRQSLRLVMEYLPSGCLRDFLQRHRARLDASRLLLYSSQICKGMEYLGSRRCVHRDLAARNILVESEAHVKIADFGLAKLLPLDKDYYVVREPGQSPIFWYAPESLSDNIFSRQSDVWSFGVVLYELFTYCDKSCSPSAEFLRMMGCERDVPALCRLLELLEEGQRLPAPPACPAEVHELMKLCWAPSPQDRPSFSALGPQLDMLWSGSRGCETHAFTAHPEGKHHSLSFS
Description: Inhibition of JAK3 JH1 catalytic domain (unknown origin) at 1 uM after 1 hr relative to control

[15] = target: Receptor tyrosine-protein kinase erbB-2 (Homo sapiens) (UniProt P04626); details: 1 uM
Description: Inhibition of HER2 (unknown origin) at 1 uM after 1 hr relative to control

[16] = target: T1, Epidermal growth factor receptor; details: 1 uM
Description: Inhibition of EGFR (unknown origin) at 1 uM after 1 hr relative to control

[17] = target: Receptor tyrosine-protein kinase erbB-4 (Homo sapiens) (UniProt Q15303); details: 1 uM
Description: Inhibition of HER4 (unknown origin) at 1 uM after 1 hr relative to control

[18] = target: Tyrosine-protein kinase BTK (Homo sapiens) (UniProt Q06187); details: 1 uM
Description: Inhibition of BTK (unknown origin) at 1 uM after 1 hr relative to control

[19] = tested on: Epidermal growth factor receptor (Homo sapiens), P00533 [T790M]; details: 1 uM

Tyrosine-protein kinase BTK (Homo sapiens), sequence (Q06187 whole entry): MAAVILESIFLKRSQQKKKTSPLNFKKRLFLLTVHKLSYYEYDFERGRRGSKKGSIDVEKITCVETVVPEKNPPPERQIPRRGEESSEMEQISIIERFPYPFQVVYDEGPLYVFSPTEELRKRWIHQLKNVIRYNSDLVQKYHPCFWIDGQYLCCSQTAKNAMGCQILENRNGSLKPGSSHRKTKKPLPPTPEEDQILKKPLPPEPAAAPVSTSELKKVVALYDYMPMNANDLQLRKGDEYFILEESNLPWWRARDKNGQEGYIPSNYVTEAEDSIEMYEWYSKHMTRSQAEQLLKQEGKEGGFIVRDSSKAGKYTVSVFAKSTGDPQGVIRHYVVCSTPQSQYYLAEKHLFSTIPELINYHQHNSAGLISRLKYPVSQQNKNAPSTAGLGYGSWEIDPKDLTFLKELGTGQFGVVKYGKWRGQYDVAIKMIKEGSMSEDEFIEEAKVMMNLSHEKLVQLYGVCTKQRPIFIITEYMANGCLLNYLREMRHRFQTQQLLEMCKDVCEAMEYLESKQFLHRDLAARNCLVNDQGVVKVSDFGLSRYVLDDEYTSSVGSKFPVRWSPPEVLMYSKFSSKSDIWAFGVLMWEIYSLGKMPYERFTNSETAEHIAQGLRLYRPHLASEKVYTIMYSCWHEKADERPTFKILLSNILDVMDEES
Receptor tyrosine-protein kinase erbB-2 (Homo sapiens), sequence (P04626 whole entry): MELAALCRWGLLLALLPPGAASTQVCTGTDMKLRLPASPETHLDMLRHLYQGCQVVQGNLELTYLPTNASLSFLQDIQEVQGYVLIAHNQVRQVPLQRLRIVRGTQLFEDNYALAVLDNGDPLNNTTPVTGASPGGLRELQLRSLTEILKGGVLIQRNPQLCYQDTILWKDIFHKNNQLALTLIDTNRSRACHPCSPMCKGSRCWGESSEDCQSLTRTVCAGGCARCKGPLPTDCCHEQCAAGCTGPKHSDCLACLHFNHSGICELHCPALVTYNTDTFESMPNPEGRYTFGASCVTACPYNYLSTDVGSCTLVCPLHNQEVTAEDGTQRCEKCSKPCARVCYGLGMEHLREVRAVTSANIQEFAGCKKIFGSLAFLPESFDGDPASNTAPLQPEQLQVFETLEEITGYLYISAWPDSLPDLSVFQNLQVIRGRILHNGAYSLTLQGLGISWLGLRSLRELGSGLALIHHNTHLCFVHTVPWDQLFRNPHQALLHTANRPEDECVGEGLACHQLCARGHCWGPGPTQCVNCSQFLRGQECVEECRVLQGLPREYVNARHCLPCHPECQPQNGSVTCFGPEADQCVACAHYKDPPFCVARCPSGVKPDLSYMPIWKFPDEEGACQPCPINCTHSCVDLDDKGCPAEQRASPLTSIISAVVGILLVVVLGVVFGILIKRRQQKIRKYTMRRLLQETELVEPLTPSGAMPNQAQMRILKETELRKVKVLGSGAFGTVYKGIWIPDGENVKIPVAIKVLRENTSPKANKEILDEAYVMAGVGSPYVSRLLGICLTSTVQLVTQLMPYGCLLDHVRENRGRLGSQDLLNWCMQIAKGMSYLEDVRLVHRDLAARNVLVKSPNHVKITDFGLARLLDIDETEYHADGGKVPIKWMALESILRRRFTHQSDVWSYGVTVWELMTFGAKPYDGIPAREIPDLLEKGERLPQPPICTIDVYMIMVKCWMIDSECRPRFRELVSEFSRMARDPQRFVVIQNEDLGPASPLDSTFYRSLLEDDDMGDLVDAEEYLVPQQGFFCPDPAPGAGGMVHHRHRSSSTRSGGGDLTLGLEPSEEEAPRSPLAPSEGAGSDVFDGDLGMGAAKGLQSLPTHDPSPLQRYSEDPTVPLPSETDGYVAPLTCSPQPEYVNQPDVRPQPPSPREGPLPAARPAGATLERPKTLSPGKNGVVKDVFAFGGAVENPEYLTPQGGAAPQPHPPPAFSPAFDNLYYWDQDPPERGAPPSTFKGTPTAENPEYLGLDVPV
Receptor tyrosine-protein kinase erbB-4 (Homo sapiens), sequence (Q15303 whole entry): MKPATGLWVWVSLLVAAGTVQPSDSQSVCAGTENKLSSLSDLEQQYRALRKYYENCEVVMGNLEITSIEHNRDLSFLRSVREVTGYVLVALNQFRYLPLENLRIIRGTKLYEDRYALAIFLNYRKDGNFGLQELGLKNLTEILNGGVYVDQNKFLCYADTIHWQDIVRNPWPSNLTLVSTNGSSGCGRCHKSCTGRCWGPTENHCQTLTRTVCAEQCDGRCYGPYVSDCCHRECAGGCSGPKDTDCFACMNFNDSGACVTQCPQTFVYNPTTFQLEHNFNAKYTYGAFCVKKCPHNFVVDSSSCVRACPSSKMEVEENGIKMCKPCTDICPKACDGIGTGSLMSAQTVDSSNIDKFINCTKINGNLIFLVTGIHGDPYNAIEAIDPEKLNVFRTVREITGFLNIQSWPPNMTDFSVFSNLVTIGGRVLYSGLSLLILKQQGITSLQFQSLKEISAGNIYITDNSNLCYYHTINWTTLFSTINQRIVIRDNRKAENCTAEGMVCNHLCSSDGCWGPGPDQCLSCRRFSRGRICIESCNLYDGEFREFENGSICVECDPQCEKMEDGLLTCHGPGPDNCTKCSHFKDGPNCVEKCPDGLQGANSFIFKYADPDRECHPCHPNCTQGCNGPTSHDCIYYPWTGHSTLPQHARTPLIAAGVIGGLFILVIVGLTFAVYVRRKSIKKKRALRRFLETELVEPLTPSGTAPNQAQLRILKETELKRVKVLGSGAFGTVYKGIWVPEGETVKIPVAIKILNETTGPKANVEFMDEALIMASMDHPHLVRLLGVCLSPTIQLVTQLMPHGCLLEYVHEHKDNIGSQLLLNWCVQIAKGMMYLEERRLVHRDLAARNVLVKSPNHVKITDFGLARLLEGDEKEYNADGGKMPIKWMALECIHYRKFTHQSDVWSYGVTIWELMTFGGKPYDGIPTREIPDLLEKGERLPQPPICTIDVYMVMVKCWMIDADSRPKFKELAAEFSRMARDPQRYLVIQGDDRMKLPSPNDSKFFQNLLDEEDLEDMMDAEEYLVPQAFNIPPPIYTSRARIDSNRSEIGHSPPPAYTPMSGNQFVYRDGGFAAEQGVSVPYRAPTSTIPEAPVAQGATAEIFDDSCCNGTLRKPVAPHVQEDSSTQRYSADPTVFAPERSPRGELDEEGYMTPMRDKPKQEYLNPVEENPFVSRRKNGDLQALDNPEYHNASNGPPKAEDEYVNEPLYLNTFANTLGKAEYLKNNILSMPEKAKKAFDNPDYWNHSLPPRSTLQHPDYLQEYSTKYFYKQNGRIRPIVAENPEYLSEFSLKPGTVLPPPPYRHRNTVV

Compound | IC50 (NCI-H1975 [1]) [nM] | IC50 [6] [nM] | IC50 ([4]; read-out: IC50) [nM] | IC50 ([5]; read-out: IC50) [nM] | IC50 [2] [nM] | other results
C=CC(=O)Nc1ccc(-n2c(=O)cnc3cnc(Nc4ccccc4)nc32)cc1 | > 10000 |  |  |  | > 10000 | IC50 [3]: Not Active; IC50 [4]: Not Active; IC50 [5]: Not Active
C=CC(=O)Nc1cccc(-n2c(=O)cnc3cnc(Nc4ccc(N5CCCC5)cc4)nc32)c1 | 579 | 4.96 | 13 | 15.3 | 70.8 | 
C=CC(=O)Nc1cccc(-n2c(=O)cnc3cnc(Nc4ccc(C(N)=O)cc4)nc32)c1 | 8480 | 3.97 | 11.8 | 12.1 | 511 | 
C=CC(=O)Nc1ccc(-n2c(=O)cnc3cnc(Nc4ccc(OC)cc4)nc32)cc1 | 2200 | 4800 | 23700 | 5130 | 1690 | 
C=CC(=O)Nc1ccc(Nc2ncc3ncc(=O)n(-c4ccc(OC)cc4)c3n2)cc1 | 1330 | 70200 | 70600 | 33900 | 1460 | 
C=CC(=O)Nc1ccc(-n2c(=O)cnc3cnc(Nc4ccc(N5CCN(C)CC5)cc4OC)nc32)cc1 | 2740 | 272 | 496 | 395 | 503 | 
C=CC(=O)Nc1cccc(-n2c(=O)cnc3cnc(Nc4ccc(N5CCN(C)CC5)cc4OC)nc32)c1 | 59 | 1.07 | 2.56 | 3.82 | 8.6 | Activity (NCI-H1975 [7]): Active; TGI (NCI-H1975 [8]): Active; Activity (Mus musculus [9]): Non-toxic; Activity (Mus musculus [10]): < 5%; MTD at 336 h [11]: 20 mg/kg; residual activity [12]: 0.1%; residual activity [13]: 0.3%; residual activity [14]: < 10%; residual activity [15]: < 10%; residual activity [16]: < 10%; residual activity [17]: < 1%; residual activity [18]: < 1%; residual activity [19]: 0.35%
COc1ccc(-n2c(=O)cnc3cnc(Nc4ccc(N)cc4)nc32)cc1 | > 10000 |  | 8450 | 25800 | > 10000 | 
CN(C)C/C=C/C(=O)Nc1ccc(-n2c(=O)cnc3cnc(Nc4ccccc4)nc32)cc1 | > 10000 |  |  |  | 5010 | IC50 [3]: Not Active; IC50 [4]: Not Active; IC50 [5]: Not Active
C=CC(=O)Nc1ccc(-n2c(=O)cnc3cnc(Nc4ccc(Cl)cc4)nc32)cc1 | > 10000 | 144 | 496 | 374 | > 10000 | 
C=CC(=O)Nc1ccc(-n2c(=O)c(C)nc3cnc(Nc4ccc(OC)cc4)nc32)cc1 | > 10000 | 35000 | 7170 | 16300 | 2760 | 
C=CC(=O)Nc1cccc(-n2c(=O)cnc3cnc(Nc4ccc(N5CCOCC5)cc4)nc32)c1 | 255 | 2.86 | 7.26 | 6.95 | 15.2 | 
C=CC(=O)Nc1cccc(-n2c(=O)cnc3cnc(Nc4ccc(N(CC)CC)cc4)nc32)c1 | 4090 | 4.72 | 14.1 | 14.5 | 44.5 | 
COc1ccc(Nc2ncc3ncc(=O)n(-c4ccc(N)cc4)c3n2)cc1 | > 10000 |  |  |  | > 10000 | IC50 [3]: Not Active; IC50 [4]: Not Active; IC50 [5]: Not Active
C=CC(=O)Nc1cccc(-n2c(=O)cnc3cnc(Nc4ccc(OC)cc4)nc32)c1 | 63.8 | 5.6 | 14.8 | 13.8 | 9.49 | 
COc1ccc(Nc2ncc3ncc(=O)n(-c4ccc(NC(=O)/C=C/CN(C)C)cc4)c3n2)cc1 | > 10000 | 31.3 | 76.5 | 59.1 | 8380 | 
C=CC(=O)Nc1cccc(-n2c(=O)cnc3cnc(Nc4ccc(N5CCN(C)CC5)cc4)nc32)c1 | 62.2 | 0.677 | 1.32 | 1.21 | 4.02 | 
C=CC(=O)Nc1ccc(-n2c(=O)cnc3cnc(Nc4ccc(N5CCOCC5)cc4)nc32)cc1 | > 10000 | 3460 | 8670 | 5590 | 7160 | 
C=CC(=O)Nc1ccc(-n2c(=O)cnc3cnc(Nc4ccc(N5CCN(C)CC5)cc4)nc32)cc1 | 6140 | 691 | 1510 | 1100 | 2370 | 
CCC(=O)Nc1ccc(-n2c(=O)cnc3cnc(Nc4ccc(OC)cc4)nc32)cc1 | > 10000 |  |  |  | > 10000 | IC50 [3]: Not Active; IC50 [4]: Not Active; IC50 [5]: Not Active

Second part, led by results:

IC50 (NCI-H1975 [1]) [nM] | IC50 [6] [nM] | IC50 ([4]; read-out: IC50) [nM] | IC50 ([5]; read-out: IC50) [nM] | Compound | IC50 [2] [nM] | other results
2360 |  |  |  | C=CC(=O)Nc1cccc(Nc2ncc3ncc(=O)n(-c4ccc(OC)cc4)c3n2)c1 | 1220 | IC50 [3]: Not Active; IC50 [4]: Not Active; IC50 [5]: Not Active
> 10000 | 3840 | 8040 | 18300 | COc1ccc(-n2c(=O)cnc3cnc(Nc4cccc(N)c4)nc32)cc1 | > 10000 | 
4080 | 4.53 | 14 | 12.5 | C=CC(=O)Nc1cccc(-n2c(=O)cnc3cnc(Nc4ccc(NC(C)=O)cc4)nc32)c1 | 388 | 
2240 | 17.6 | 49.1 | 47.1 | C=CC(=O)Nc1cccc(-n2c(=O)cnc3cnc(Nc4ccc(Cl)cc4)nc32)c1 | 175 | 
> 10000 |  |  |  | CCC(=O)Nc1cccc(-n2c(=O)cnc3cnc(Nc4ccc(OC)cc4)nc32)c1 | > 10000 | IC50 [3]: Not Active; IC50 [4]: Not Active; IC50 [5]: Not Active
559 | 56200 | 32800 | 26300 | COc1ccc(Nc2ncc3ncc(=O)n(-c4cccc(NC(=O)/C=C/CN(C)C)c4)c3n2)cc1 | 917 | 
298 | 5.12 | 14.8 | 15.7 | C=CC(=O)Nc1cccc(-n2c(=O)cnc3cnc(Nc4ccc(N5CCCCC5)cc4)nc32)c1 | 25.3 | 
5900 | 59.1 | 123 | 60.4 | C=CC(=O)Oc1ccc(-n2c(=O)cnc3cnc(Nc4ccc(OC)cc4)nc32)cc1 | 8590 | 
> 10000 | 21300 | 55900 |  | COc1ccc(Nc2ncc3ncc(=O)n(-c4cccc(N)c4)c3n2)cc1 | > 10000 | IC50 [5]: Not Active
